Laboratory results published in US12673140B2, “Bladder, ureter, kidney, urethra, prostate and catheter anti-microbial, and biofilm prevention, reduction and treatment” (UHI, LLC, priority 2019, dated 2026).

Tested on: S. aureus
Assay: MIC, CLSI microdilution
Type: cell-based
Settings: 2% solution serially diluted

## [H]/N=C(\N/C(=N/[H])NCCCCCCNC(=N)NC(=N)Nc1ccc(Cl)cc1)Nc1ccc(Cl)cc1 [Chlorhexidine, chlorhexidine gluconate]
  Chlorhexidine MIC: 19.6 μg/ml chlorhexidine
